Experiments:
MDCK-MOCK cells [1] = test: MTT drug sensitivity assay in MDCK-MOCK cells; type: cell-based, canine; conditions: SAR study Table 4, 7 hours of drug exposure; read-out: IC50 MDCK-MOCK
Protocol: (§1) Cytotoxicity of the platinum-based compounds was measured by MTT (thiazolyl blue tetrazolium bromide) assay. Cells were seeded in 100 μl of the culture medium without any antibiotics in 96-well plates at a predetermined cell density. For HEK 293 cells, poly-D-lysine coated plates were used. After overnight incubation, the platinum-based compounds were then added to the culture medium to give the indicated final concentrations. For the OCT inhibitor studies, the inhibitors (i.e., disopyramide or cimetidine) were added to the medium at a specified concentration immediately before the addition of the platinum-based compounds. After incubation for a specified time period, the drug-containing medium was replaced with fresh, drug-free medium and the incubation was continued for a total of 72 hours (start from the addition of platinum-based compounds). Then, the MTT assay was performed similarly as described in Alley et al., Cancer Res., 48:589-601 (1988). […] The maximal cell growth was the cell growth in the medium without any platinum-based compounds; C is the concentration of the platinum-based compound, and γ is the slope factor.
(§2) Briefly, the cells were seeded in 96-well plates at a density of 5,000 cells/well for the transfected MDCK cells or 12,000 cells/well for the transfected HEK 293 cells. The platinum-based drugs were added on the following day. After the specified time periods of drug exposure, the drug-containing medium was replaced with fresh, drug-free medium, and the incubation was continued for a total of 72 hours (start from the time when the drug was added). After incubation, the cell growth was determined by an MTT assay. Data are expressed as mean±SD from 3 to 6 independent experiments with each performed in quadruplicate. The resistance factor (RF) was defined as the ratio of the mean IC50 value in the MOCK cells to that in the OCT-transfected cells.
(§3) Briefly, MDCK cells were seeded at a density of 5,000 cells/well in 96-well plates and exposed to the test compounds for 7 hours on the following day. After incubation for a total of 72 hours, the cell growth was determined by an MTT assay. The data for carboplatin was taken from Table 1 and was not determined simultaneously with the other compounds. The resistance factor (RF) was defined as the ratio of the mean IC50 value in MDCK-MOCK cells to that in MDCK-hOCT1 cells. Data are expressed as mean±SD from six measurements, and each measurement was performed in quadruplicate.

MDCK-hOCT1 cells [2] = test: MTT drug sensitivity assay in MDCK-hOCT1 cells; type: cell-based, canine; conditions: SAR study Table 4, 7 hours of drug exposure; read-out: IC50 MDCK-hOCT1
Protocol: as §1, with “After overnight incubation, the platinum-based compounds were then added to the culture medium to give the indicated final concentrations.” left out
as §2, §3

[3] = pKa values and species distribution of aquated oxaliplatin in incubation buffer; type: physicochemical; conditions: PB—SO4 buffer, pH 7.4, calculated from pKa values
MDCK-MOCK cells [4] = test: Platinum-DNA adduct formation in MDCK-MOCK cells; type: cell-based, canine; conditions: 1 μM, PB—SO4, 25 min
Protocol: (§4) After incubation at 37° C. and 5% CO2 for 2 hours, the cells were washed with ice-cold PBS three times and harvested. The genomic DNA was isolated from the cells and the platinum content associated with DNA was determined by ICP-MS and normalized for DNA content. Data are expressed as mean±SD from a typical experiment performed in triplicate. Two independent experiments were conducted and similar results were obtained.
(§5) After incubation, the cells were washed with ice-cold PBS three times and harvested. Genomic DNA was isolated from the harvested cells and the DNA-associated platinum content was determined by ICP-MS and normalized for the DNA content. Data are expressed as mean±SD of three measurements.
(§6) The platinum content associated with genomic DNA was determined as described in Samimi et al., Clin. Cancer Res., 10:4661-4669 (2004) with some modifications. Briefly, the cells were grown in 100 mm×20 mm dishes in the culture medium without any antibiotics to over 90% confluence. For HEK 293 cells, poly-D-lysine coated dishes were used. Then, the cells were incubated in the culture medium containing the specified concentrations of the platinum-based compounds at 37° C. in 5% CO2 for 2 hours (or 25 min as specified). In some experiments, phosphate buffer (PB: 1.06 mM KH2PO4, 2.97 mM Na2HPO4, pH 7.4) containing 155 mM NaCl (PB—Cl buffer) or 103 mM Na2SO4 (PB—SO4 buffer) was used instead of the culture medium as specified. For the OCT inhibitor study, the incubation medium (buffer) also contained disopyramide or cimetidine). If PB—Cl or PB—SO4 buffer was used, the cells were washed with the same buffer once before drug incubation. After incubation, the cells were washed with ice-cold PBS, scraped, and pelleted. Genomic DNA was isolated from the cell pellets using the Wizard® Genomic DNA Purification Kit (Promega, Madison, Wis.) following the manufacturer's instructions. Briefly, the cells were lysed with Nuclei Lysis Solution. After RNA digestion and protein precipitation, the lysates were centrifuged and the resulting supernatant was aliquoted. The genomic DNA prepared from two different aliquots of the supernatant was used for platinum and DNA content determination, respectively. For the determination of platinum, the DNA samples were treated with 70% nitric acid at 65° C. and diluted in the same way as described above. The platinum content was analyzed using ICP-MS and the DNA content was measured by absorption spectroscopy.

MDCK-hOCT1 cells [5] = test: Platinum-DNA adduct formation in MDCK-hOCT1 cells; type: cell-based, canine; conditions: 1 μM, PB—SO4, 25 min
Protocol: as §4, §5, §6

percentage of aqua/hydroxo species [3]	percentage of diaqua species [3]	Structure (SMILES)	IC50 (MDCK-MOCK cells [1])	IC50 (MDCK-hOCT1 cells [2])	DNA-associated platinum level in MDCK-MOCK (MDCK-MOCK cells [4])	rb in MDCK-MOCK (MDCK-MOCK cells [4])	DNA-associated platinum level in MDCK-hOCT1 (MDCK-hOCT1 cells [5])	rb in MDCK-hOCT1 (MDCK-hOCT1 cells [5])
–	–	NCCN.[Cl][Pt][Cl] [[Pt(Cl2)(en)]]	33.2 ± 11.5 µM	10.2 ± 4.76 µM	–	–	–	–
17.1%	82.8%	NC1CCCCC1N.O.O.[Pt+2] [[Pt(R,R-DACH)(H2O)2]^2+]	–	–	0.0142±0.0028 pmol/μg DNA	4.69±0.92×10^−6	0.0139±0.0020 pmol/μg DNA	4.59±0.66×10^−6
–	–	[Cl][Pt]1([Cl])[NH]C2CCCCC2[NH]1 [[Pt(R,R-DACH)Cl2]]	15 ± 3.24 µM	0.65 ± 0.26 µM	–	–	–	–
–	–	[Cl][Pt]1([Cl])[NH]C2CCCCC2[NH]1 [[Pt(S,S-DACH)Cl2]]	16.2 ± 3.72 µM	0.57 ± 0.18 µM	–	–	–	–

Source: patent publication US20100028259A1, “USE OF ORGANIC CATION TRANSPORTERS FOR CANCER DIAGNOSIS AND THERAPY” (The Regents of the University of California, priority 2006, published 2010)
